Broadly, the EC50 is the concentration at which the effect is half-maximal.

Among the data in patent US10774076B2, “Benzazole compounds and methods for making and using the compounds” (Rigel Pharmaceuticals, Inc., priority 2015, dated 2020) are EC50 values, retold here.

One test deals with IL23p19. Briefly: LPS Induced IL23p19 in THP-1 Cells (with IFNγ Primed) Assay. The settings on record: Homo sapiens, IFNγ primed (50 ng/mL), LPS 1 ug/mL, 18 hours, 10 pt, read-out: IL23-p19 ELISA, THP1-IFNy, LPS, 10 pt EC50. The format is cell-based. The method, boiled down:
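IFNγ-primed (50 ng/mL, ~18 h) THP-1 cells in RPMI/10% FBS pre-incubated 1 h with serially diluted compound, then stimulated 18 h at 37 °C with 1 ug/mL LPS. Supernatant IL-23p19 quantified by chemiluminescent sandwich ELISA (anti-IL-12 p40/p70 detection); EC50 from curve fit. Toxicity checked by Cell Titer Glo.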
(In an ELISA, binding on a coated surface is turned into a signal by an enzyme label.)

The test system of the next test is IL23-p19. As to the kind of experiment: Compound screening using DC cells: LPS-induced IL-23 (p19/p40) ELISA in IFNγ-primed dendritic cells differentiated from human PBMC. The format is cell-based. The settings on record: Dendritic cell, human PBMC-derived dendritic cells, LPS 1 μg/ml, 18 hours, 10 pt. A digest of the protocol: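 Dendritic cells were derived from human PBMC over 7 days with GMCSF (100 ng/ml) and IL4 (20 ng/ml), then primed 24 h with 50 ng/ml IFNγ. After 1 h pre-incubation with compound, cells were stimulated with LPS (1 μg/ml final) for 18 h at 37 °C. IL-23 in supernatant measured by p19-capture/p40-detection chemiluminescent ELISA; cytotoxicity checked by CellTiter-Glo.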

Regarding `O=C(Nc1cc2oc(N3CCOCC3)nc2cc1N1CCCC(F)(F)C1)c1ccc(-c2cn[nH]c2)o1` [Compound I-42, N-(5-(3,3-difluoropiperidin-1-yl)-2-morpholinobenzo[d]oxazol-6-yl)-5-(1H-pyrazol-4-yl)furan-2-carboxamide], the EC50 with IL23p19 was determined as 60.6 nM; with IL23-p19 it was 84.8 nM.
Turning to `Cc1cc(-c2ccc(C(=O)Nc3cc4oc(N5CCOCC5)nc4cc3N3CCCC(F)(F)C3)o2)ccn1` [Compound I-43, N-(5-(3,3-difluoropiperidin-1-yl)-2-morpholinobenzo[d]oxazol-6-yl)-5-(2-methylpyridin-4-yl)furan-2-carboxamide], the EC50 was found to be 344 nM with IL23p19 and 2620 nM in the test with IL23-p19.
In the same order, the values of `O=C(Nc1cc2oc(N3CCOCC3)nc2cc1N1CCCC(F)(F)C1)c1csc(-c2cn[nH]c2)n1` [Compound I-44, N-(5-(3,3-difluoropiperidin-1-yl)-2-morpholinobenzo[d]oxazol-6-yl)-2-(1H-pyrazol-4-yl)thiazole-4-carboxamide] are 88.7 nM and 101 nM.
Consider `Cc1cc(-c2nc(C(=O)Nc3cc4oc(N5CCOCC5)nc4cc3N3CCCC(F)(F)C3)cs2)ccn1` [Compound I-45, N-(5-(3,3-difluoropiperidin-1-yl)-2-morpholinobenzo[d]oxazol-6-yl)-2-(2-methylpyridin-4-yl)thiazole-4-carboxamide], for which the EC50 in the test on IL23p19 turned out to be 342 nM; in the test with IL23-p19, 402 nM.
In the same order, the values of `O=C(Nc1cc2oc(N3CCOCC3)nc2cc1N1CCCC1)c1ccc(-c2cn[nH]c2)o1` [Compound I-46, N-(2-morpholino-5-(pyrrolidin-1-yl)benzo[d]oxazol-6-yl)-5-(1H-pyrazol-4-yl)furan-2-carboxamide] are 58.7 nM and 37.5 nM.
In the case of `O=C(Nc1cc2oc(N3CCOCC3)nc2cc1N1CCCC1)c1csc(-c2cn[nH]c2)n1` [Compound I-47, N-(2-morpholino-5-(pyrrolidin-1-yl)benzo[d]oxazol-6-yl)-2-(1H-pyrazol-4-yl)thiazole-4-carboxamide], the values for the EC50 in the test on IL23p19 and with IL23-p19 were 21.3 nM and 58 nM, respectively.
`O=C(Nc1cc2oc(N3CCOCC3)nc2cc1N1CCOCC1)c1ccc(-c2cn[nH]c2)o1` [Compound I-48, N-(2,5-dimorpholinobenzo[d]oxazol-6-yl)-5-(1H-pyrazol-4-yl)furan-2-carboxamide]: the EC50 with IL23p19 stood at 58.5 nM; with IL23-p19, 123 nM.
Taken in the same sequence, the figures for `O=C(Nc1cc2oc(N3CCOCC3)nc2cc1N1CCOCC1)c1csc(-c2cn[nH]c2)n1` [Compound I-49, N-(2,5-dimorpholinobenzo[d]oxazol-6-yl)-2-(1H-pyrazol-4-yl)thiazole-4-carboxamide] were 50.4 nM and 48.1 nM.
For `COCCN(C)c1nc2cc(N3CCCCC3)c(NC(=O)c3ccc(-c4cn[nH]c4)o3)cc2o1` [Compound I-50, N-(2-((2-methoxyethyl)(methyl)amino)-5-(piperidin-1-yl)benzo[d]oxazol-6-yl)-5-(1H-pyrazol-4-yl)furan-2-carboxamide], the figures for the half-maximal effective concentration (EC50) with IL23p19 and in the test with IL23-p19 were 133 nM and 75.7 nM, respectively.
For the compound `COCCN(C)c1nc2cc(N3CCCCC3)c(NC(=O)c3csc(-c4cn[nH]c4)n3)cc2o1` [Compound I-51, N-(2-((2-methoxyethyl)(methyl)amino)-5-(piperidin-1-yl)benzo[d]oxazol-6-yl)-2-(1H-pyrazol-4-yl)thiazole-4-carboxamide], the EC50 with IL23p19 came out at 74.2 nM; with IL23-p19, 41.1 nM.
In the same order, the values of `O=C(Nc1cc2oc(NCCN3CCOCC3)nc2cc1N1CCCCC1)c1csc(-c2cn[nH]c2)n1` [Compound I-52, N-(2-((2-morpholinoethyl)amino)-5-(piperidin-1-yl)benzo[d]oxazol-6-yl)-2-(1H-pyrazol-4-yl)thiazole-4-carboxamide] are 20 nM and 37.1 nM.
Taken in the same sequence, the figures for `CN(CCN1CCOCC1)c1nc2cc(N3CCCCC3)c(NC(=O)c3ccc(-c4cn[nH]c4)o3)cc2o1` [Compound I-53, N-(2-(methyl(2-morpholinoethyl)amino)-5-(piperidin-1-yl)benzo[d]oxazol-6-yl)-5-(1H-pyrazol-4-yl)furan-2-carboxamide] were 180 nM and 121 nM.
In the same order, the values of `CN(CCN1CCOCC1)c1nc2cc(N3CCCCC3)c(NC(=O)c3csc(-c4cn[nH]c4)n3)cc2o1` [Compound I-54, N-(2-(methyl(2-morpholinoethyl)amino)-5-(piperidin-1-yl)benzo[d]oxazol-6-yl)-2-(1H-pyrazol-4-yl)thiazole-4-carboxamide] are 106 nM and 60.3 nM.
